Experiment [1] addresses T1, full-length chicken c-Src (Gallus gallus, UniProt P00523).
T1 construct: assayed against full-length chicken c-Src
Kind of experiment: Z'-LYTE kinase assay (Tyr 02 substrate peptide), full-length c-Src. The experiment is classed as biochemical. The method, then: For the FRET-based endpoint assay, kinase assays were performed using Invitrogen's Z′-LYTE kinase assay using the Tyr 02 substrate peptide (based upon the optimal Abl substrate peptide […]) according to the manufacturer's instructions. Assays were performed at near KM ATP concentrations for full-length c-Src and full-length c-Src T338I-50 μM and 7 μM, respectively.
Derivatives of MC4 were synthesized by Fmoc solid-phase peptide synthesis and assayed against full-length chicken c-Src using Invitrogen's Z′-LYTE kinase assay. […] Holding the amino acids at the A and C positions constant, variants of MC4 containing phenylalanine, cyclohexylalanine, pentafluorophenylalanine, and N-methyl-phenylalanine at the B position in place of furylalanine were synthesized and assayed.

Experiment [2] deals with T2, Abl (Homo sapiens, UniProt P00519).
T2 construct: human c-Abl (residues 229-512); made in house
T2 sequence (P00519 229-512): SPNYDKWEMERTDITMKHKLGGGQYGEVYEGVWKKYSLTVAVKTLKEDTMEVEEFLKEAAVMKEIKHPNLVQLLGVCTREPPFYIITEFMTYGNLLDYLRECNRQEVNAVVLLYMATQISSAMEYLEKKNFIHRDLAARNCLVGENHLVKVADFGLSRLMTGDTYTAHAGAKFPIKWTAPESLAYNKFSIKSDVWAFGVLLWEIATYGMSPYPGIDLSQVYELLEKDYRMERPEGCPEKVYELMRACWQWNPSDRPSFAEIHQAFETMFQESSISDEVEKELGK
Kind of experiment: Continuous spectrophotometric kinase activity assay. Format: biochemical. From the text:
(§1) Kinase domain constructs of human c-Abl (residues 229-512), chicken c-Src (residues 251-533 and residues 83-533), murine Lck (residues 227-509), and human Hck (residues 166-445) were expressed as previously described (Seeliger, Young et al. 2005; Seeliger, Nagar et al. 2007; the entire contents of each of which are incorporated by reference herein). Mutations were introduced into chicken c-Src (residues 251-533) (T338I, C277Q, L297M) by site-directed mutagenesis and verified by DNA sequencing.
(§2) In vitro kinase inhibition assays were performed using either a continuous spectrophotometric assay or a FRET-based endpoint assay.
(§3) The original characterization of kinase inhibition was performed with a commercial kinase assay that relies on a fluorescently labeled peptide kinase substrate (Z-LYTE, Invitrogen). For further characterization, a continuous spectrophotometric kinase activity assay was employed that is easily adapted to different substrate peptides as well as a wider range of peptide and ATP concentrations.

Experiment [3] has as its target T3, Src kinase domain (chicken c-Src residues 251-533) (Gallus gallus, UniProt P00523).
T3 construct: chicken c-Src (residues 251-533 and residues 83-533); made in house
Described as above. The experiment is classed as biochemical. The conditions noted are these: Src kinase domain.
Excerpt: as §1, §2, §3

For experiment [4], the target named is T4, Lck (Mus musculus, UniProt P06240).
T4 construct: murine Lck (residues 227-509); made in house
Described as above. Format: biochemical, murine.
Excerpt: as §1, §2, §3

For experiment [5], the target named is HCK (Homo sapiens, UniProt P08631). Described as above. The experiment is classed as biochemical. Set-up: Kinase domain constructs of human c-Abl (residues 229-512), chicken c-Src (residues 251-533 and residues 83-533), murine Lck (residues 227-509), and human Hck (residues 166-445); made in house. The conditions noted are these: 300 μM Src optimal peptide.
Excerpt: as §1, §2, §3

Experiment [6] deals with Src kinase (Homo sapiens, UniProt P12931). Kind of experiment: Z'-LYTE kinase assay (Invitrogen), Src. Format: biochemical. Set-up: full-length kinase in the Z-LYTE assay vs. kinase domain in the current study; purchased Millipore. As to conditions: for Src kinase inhibition (in words): non-DNA-linked compound; for IC50: Z'-LYTE, ATP near KM. The method, then:
Nine macrocycles enriched in the Src selection (FIG. 5) and synthesized as described above were assayed in vitro for the ability to inhibit Src kinase activity. Kinase activity was assayed in the presence of varying concentrations of macrocycle using the FRET-based Z′-LYTE assay (Invitrogen).
(§4) Src IC50 determinations and single-point inhibition measurements were performed using Invitrogen's Z′-LYTE Tyr 02 assay kit according to the manufacturer's protocols. All kinase assays were performed at ATP concentrations near KM,ATP values, except where noted otherwise. Active human Src kinase was obtained from Millipore. For kinome profiling and IC50 determinations against non-Src kinases, compounds were submitted to Invitrogen's SelectScreen Kinase Profiling Service.

The target of experiment [7] is Pim1 (Homo sapiens, UniProt P11309). Kind of experiment: Z'-LYTE kinase assay (Invitrogen SelectScreen). Format: biochemical. As to conditions: Pim1.
Excerpt: (§5) Macrocycles A10-B1-C11-D5 and A10-B8-C11-D5 were enriched 2- to 6-fold upon selection for binding Akt3, MAPKAPK2, Pim1, and VEGFR2 (FIG. 6). These two macrocycles are structurally similar, sharing nitrophenylalanine (A10) and cyclohexylstatine (C11) building blocks as well as the same lysine scaffold (D5), and differ only at the B building block with either furylalanine (B1) or cyclohexylalanine (B8) (FIG. 6). For assay purposes, the macrocycles were synthesized with C-terminal PEG-diamine linkers to aid solubility, and then tested for the ability to inhibit Akt3, MAPKAPK2, Pim1 and VEGFR2.
as §4

Experiment [8] has as its target p38α-MAPKAPK2 kinase cascade (P38α-MK2) (Homo sapiens, UniProt P49137+Q16539). Put plainly: Z'-LYTE kinase cascade assay (Invitrogen SelectScreen). The experiment is classed as biochemical.
Excerpt: as §5, §4

[9] abbreviates: 5 μM ATP, 100 μM Src optimal peptide.
[10] abbreviates: 5 μM ATP, 300 μM Src optimal peptide.
[11] abbreviates: 250 μM ATP, 300 μM Src optimal peptide.

19 molecules from US8975232B2, “Macrocyclic kinase inhibitors and uses thereof” (President and Fellows of Harvard College, priority 2010, dated 2015) can be followed below.

For orientation: IC50 means the concentration that inhibits the measured activity by half. Read a high IC50 as weaker potency in that assay.

*1 amine or outer side, *2 acyl side, *3 side chain or, on linkers, in order; H or OH if unused. Where a SMILES comes first, the peptide text is derived from it. Bridges are numbered along the chain shown (N, C = ends). [ ]: non-standard residue; d: D form. The star is where a group is joined. Ala(E-styryl) = N[C@@H](C/C=C/c1ccccc1)C(=O)O; dBpa = N[C@H](Cc1ccc(C(=O)c2ccccc2)cc1)C(=O)O; Maleoyl = O=C(/C=C\C(=O)[*:2])[*:1]; NH(CH2CH2O)2CH2CH2NH2 = NCCOCCOCCN*; Cha = N[C@@H](CC1CCCCC1)C(=O)O; Dab = NCC[C@H](N)C(=O)O; Dap = NC[C@H](N)C(=O)O

Sequence of Src kinase (P12931 whole entry, the tested form may be a part): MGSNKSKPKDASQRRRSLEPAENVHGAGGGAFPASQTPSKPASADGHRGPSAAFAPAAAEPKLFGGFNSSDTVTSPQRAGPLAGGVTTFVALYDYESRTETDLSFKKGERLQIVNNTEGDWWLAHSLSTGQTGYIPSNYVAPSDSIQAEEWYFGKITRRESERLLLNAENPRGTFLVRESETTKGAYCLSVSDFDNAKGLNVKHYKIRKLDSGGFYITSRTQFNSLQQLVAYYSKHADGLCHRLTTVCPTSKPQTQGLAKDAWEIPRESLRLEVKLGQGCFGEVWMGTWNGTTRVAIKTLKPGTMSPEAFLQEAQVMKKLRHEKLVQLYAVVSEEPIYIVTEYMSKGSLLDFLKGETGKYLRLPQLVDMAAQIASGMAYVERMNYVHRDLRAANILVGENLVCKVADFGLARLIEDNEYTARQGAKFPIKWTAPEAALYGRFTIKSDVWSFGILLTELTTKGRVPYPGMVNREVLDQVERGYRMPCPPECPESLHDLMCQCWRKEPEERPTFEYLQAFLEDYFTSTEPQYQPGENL
T4 sequence (P06240 227-509): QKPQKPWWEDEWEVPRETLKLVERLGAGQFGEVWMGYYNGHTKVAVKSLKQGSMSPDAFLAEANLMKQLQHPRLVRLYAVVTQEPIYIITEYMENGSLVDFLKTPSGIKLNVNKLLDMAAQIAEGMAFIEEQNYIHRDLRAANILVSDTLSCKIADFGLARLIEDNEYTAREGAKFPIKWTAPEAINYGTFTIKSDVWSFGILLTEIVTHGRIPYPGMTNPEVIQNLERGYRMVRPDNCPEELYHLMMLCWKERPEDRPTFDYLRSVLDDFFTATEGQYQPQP
Sequence of HCK (P08631 262-515 limits assumed): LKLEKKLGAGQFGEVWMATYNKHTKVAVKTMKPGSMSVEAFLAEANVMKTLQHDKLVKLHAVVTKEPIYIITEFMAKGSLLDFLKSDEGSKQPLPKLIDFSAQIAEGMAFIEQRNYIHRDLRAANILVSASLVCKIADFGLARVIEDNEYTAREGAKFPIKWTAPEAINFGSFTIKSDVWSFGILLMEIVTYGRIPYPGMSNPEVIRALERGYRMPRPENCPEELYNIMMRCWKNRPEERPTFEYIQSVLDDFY
Sequence of p38α-MAPKAPK2 kinase cascade (P38α-MK2) (Q16539 whole entry): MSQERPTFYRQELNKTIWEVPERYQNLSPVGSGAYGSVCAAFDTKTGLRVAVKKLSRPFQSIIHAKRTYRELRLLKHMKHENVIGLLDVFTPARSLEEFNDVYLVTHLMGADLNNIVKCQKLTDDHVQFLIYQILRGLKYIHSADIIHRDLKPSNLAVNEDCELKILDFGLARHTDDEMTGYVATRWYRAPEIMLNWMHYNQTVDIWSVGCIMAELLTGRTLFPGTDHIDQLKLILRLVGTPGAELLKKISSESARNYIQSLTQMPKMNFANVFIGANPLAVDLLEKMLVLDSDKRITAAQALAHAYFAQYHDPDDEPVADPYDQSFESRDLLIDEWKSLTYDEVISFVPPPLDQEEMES
Sequence of p38α-MAPKAPK2 kinase cascade (P38α-MK2) (P49137 whole entry): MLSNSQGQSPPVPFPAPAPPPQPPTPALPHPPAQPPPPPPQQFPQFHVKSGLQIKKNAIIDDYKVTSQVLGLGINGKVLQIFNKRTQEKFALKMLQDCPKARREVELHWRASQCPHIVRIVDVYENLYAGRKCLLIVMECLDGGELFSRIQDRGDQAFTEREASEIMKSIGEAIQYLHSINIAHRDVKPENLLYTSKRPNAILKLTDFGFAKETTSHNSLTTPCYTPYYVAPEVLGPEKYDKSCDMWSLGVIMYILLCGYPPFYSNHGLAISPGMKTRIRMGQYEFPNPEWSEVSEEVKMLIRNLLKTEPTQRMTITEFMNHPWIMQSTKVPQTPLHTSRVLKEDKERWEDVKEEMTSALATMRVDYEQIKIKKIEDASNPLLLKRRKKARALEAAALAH
Sequence of Pim1 (P11309 whole entry): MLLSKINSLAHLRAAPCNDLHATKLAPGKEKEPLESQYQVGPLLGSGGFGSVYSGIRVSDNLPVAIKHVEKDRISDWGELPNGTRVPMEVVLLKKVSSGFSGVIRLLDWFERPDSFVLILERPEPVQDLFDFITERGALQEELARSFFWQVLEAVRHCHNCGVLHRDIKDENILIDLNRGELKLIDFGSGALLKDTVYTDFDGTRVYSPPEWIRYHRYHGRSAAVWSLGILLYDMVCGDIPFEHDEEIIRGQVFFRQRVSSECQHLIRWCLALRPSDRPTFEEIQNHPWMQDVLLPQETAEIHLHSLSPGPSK

As for `NC(=O)[C@@H]1CCCNC(=O)[C@H](Cc2ccc([N+](=O)[O-])cc2)NC(=O)[C@H](Cc2ccccc2)NC(=O)[C@H](CC2CC2)NC(=O)/C=C/C(=O)N1` [MC4.1], in experiment [1], the “increase in Src inhibition potency relative to parent macrocycle” value was 3 fold. Further, the IC50 in experiment [1] (full-length chicken c-Src, ATP near KM (50 μM)) was 0.08 µM; in experiment [2] (setting [9]) it was above 100 µM; in experiment [2] (setting [10]), above 100 µM; in experiment [2] (setting [11]), above 100 µM; in experiment [3] (setting [9]), 0.6 µM; in experiment [3] (setting [10]), 0.8 µM. For the same molecule, the IC50 was 1.8 µM in experiment [3] (setting [11]); 5.2 µM in experiment [4] (setting [9]); 5.5 µM in experiment [4] (setting [10]); 10 µM in experiment [4] (setting [11]); 6.3 µM in experiment [5] (5 μM ATP); 11 µM in experiment [5] (250 μM ATP).

For the molecule `CS(=O)(=O)CC[C@@H]1NC(=O)[C@H](Cc2ccco2)NC(=O)[C@H](CC2CC2)NC(=O)C=CC(=O)N[C@H](C(N)=O)CCNC1=O` [Macrocycle A9-B1-C5-D7], the “Src kinase inhibition (in words)” value in experiment [6] was “did not inhibit Src”.

For `NC(=O)[C@@H]1CCCNC(=O)[C@H](Cc2ccc([N+](=O)[O-])cc2)NC(=O)[C@H](Cc2ccco2)NC(=O)[C@H](CC2CC2)NC(=O)C=CC(=O)N1` [Macrocycle A10-B1-C5-D6], in experiment [6], the “difference in potency between cis and trans stereoisomers (Src)” value is listed as around 10 fold.

For `NC(=O)[C@@H]1CCNC(=O)[C@H](Cc2ccc([N+](=O)[O-])cc2)NC(=O)[C@H](Cc2ccco2)NC(=O)[C@H](CC2CC2)NC(=O)/C=C\C(=O)N1` [cis-A10-B1-C5-D7], the IC50 in experiment [6] came to 8.9 µM.

Regarding `C=CC[C@@H]1NC(=O)/C=C\C(=O)N[C@H](C(N)=O)CCNC(=O)[C@H](CCCNC(=O)c2cnccn2)NC(=O)[C@H](Cc2ccco2)NC1=O` [cis-A11-B1-C3-D7], the IC50 in experiment [6] worked out at 10 µM.

As for `NC(=O)[C@@H]1CCCCNC(=O)[C@H](CCCNC(=O)c2cnccn2)NC(=O)[C@H](Cc2ccco2)NC(=O)[C@H](CC2CC2)NC(=O)/C=C\C(=O)N1` [cis-A11-B1-C5-D5], the IC50 in experiment [6] stood at 85 µM.

Consider `NC(=O)[C@@H]1CCNC(=O)[C@H](CCCNC(=O)c2cnccn2)NC(=O)[C@H](Cc2ccco2)NC(=O)[C@H](C/C=C/c2ccccc2)NC(=O)/C=C\C(=O)N1` [cis-A11-B1-C10-D7], for which, in experiment [6], the midpoint of inhibition, the IC50, lay at 7 µM.

In experiment [6], `NC(=O)[C@@H]1CCNC(=O)[C@H](CCCNC(=O)c2cnccn2)NC(=O)[C@H](CC2CCCCC2)NC(=O)[C@H](CC2CC2)NC(=O)/C=C\C(=O)N1` [cis-A11-B8-C5-D7] displayed an IC50 of 36 µM.

In the case of `NCCOCCOCCNC(=O)[C@@H]1CCNC(=O)/C=C\C(=O)N[C@@H](C/C=C/c2ccccc2)C(=O)N[C@@H](CC2CCCCC2)C(=O)N[C@H](Cc2ccc(C(=O)c3ccccc3)cc2)C(=O)N1` [cis-A12-B8-C10-D3] ([Ala(E-styryl)][Cha][dBpa][Dab]-{NH(CH2CH2O)2CH2CH2NH2}; linker N-4 via Maleoyl), the figures for the IC50 in experiment [7] and in experiment [8] were 25 µM and 12 µM, respectively.

For the molecule `NCCOCCOCCNC(=O)[C@@H]1CNC(=O)/C=C\C(=O)N[C@@H](C/C=C/c2ccccc2)C(=O)N[C@@H](CC2CCCCC2)C(=O)N[C@H](Cc2ccc(C(=O)c3ccccc3)cc2)C(=O)N1` [cis-A12-B8-C10-D4] ([Ala(E-styryl)][Cha][dBpa][Dap]-{NH(CH2CH2O)2CH2CH2NH2}; linker N-4 via Maleoyl), the IC50 in experiment [7] turned out to be 100 µM; in experiment [8], 20 µM.

As to `CS(=O)(=O)CC[C@@H]1NC(=O)[C@H](Cc2ccco2)NC(=O)[C@H](CC2CC2)NC(=O)/C=C/C(=O)N[C@H](C(N)=O)CCNC1=O` [trans-A9-B1-C5-D7], in experiment [6], the IC50 was above 100 µM.

`NC(=O)[C@@H]1CCNC(=O)[C@H](Cc2ccc([N+](=O)[O-])cc2)NC(=O)[C@H](Cc2ccco2)NC(=O)[C@H](CC2CC2)NC(=O)/C=C/C(=O)N1` [trans-A10-B1-C5-D7]: the IC50 in experiment [6] came out at 1.5 µM.

Take `C=CC[C@@H]1NC(=O)/C=C/C(=O)N[C@H](C(N)=O)CCNC(=O)[C@H](CCCNC(=O)c2cnccn2)NC(=O)[C@H](Cc2ccco2)NC1=O` [trans-A11-B1-C3-D7]: in experiment [6], the IC50 is 48 µM.

Turning to `NC(=O)[C@@H]1CCCCNC(=O)[C@H](CCCNC(=O)c2cnccn2)NC(=O)[C@H](Cc2ccco2)NC(=O)[C@H](CC2CC2)NC(=O)/C=C/C(=O)N1` [trans-A11-B1-C5-D5], the IC50 in experiment [6] was above 100 µM.

In experiment [6], `NC(=O)[C@@H]1CCNC(=O)[C@H](CCCNC(=O)c2cnccn2)NC(=O)[C@H](Cc2ccco2)NC(=O)[C@H](CC2CC2)NC(=O)/C=C/C(=O)N1` [trans-A11-B1-C5-D7] yielded an IC50 of 12 µM.

In the case of `NC(=O)[C@@H]1CCNC(=O)[C@H](CCCNC(=O)c2cnccn2)NC(=O)[C@H](Cc2ccco2)NC(=O)[C@H](C/C=C/c2ccccc2)NC(=O)/C=C/C(=O)N1` [trans-A11-B1-C10-D7], the IC50 in experiment [6] came out at 21 µM.

Molecule `NC(=O)[C@@H]1CCNC(=O)[C@H](CCCNC(=O)c2cnccn2)NC(=O)[C@H](CC2CCCCC2)NC(=O)[C@H](CC2CC2)NC(=O)/C=C/C(=O)N1` [trans-A11-B8-C5-D7] displayed an IC50 in experiment [6] above 100 µM.

With `NC(=O)[C@@H]1CCNC(=O)[C@H](CCCNC(=O)c2cnccn2)NC(=O)[C@H](CC2CCCCC2)NC(=O)[C@H](C/C=C/c2ccccc2)NC(=O)/C=C/C(=O)N1` [trans-A11-B8-C10-D7], the IC50 in experiment [6] is above 100 µM.

`NC(=O)[C@@H]1CCCNC(=O)[C@H](Cc2ccccc2)NC(=O)[C@H](Cc2ccco2)NC(=O)[C@H](CC2CC2)NC(=O)/C=C/C(=O)N1` [trans-Phe-B1-C5-D6]: the “Src kinase inhibition (in words)” value in experiment [6] is reported as “abolished Src inhibition”.
